This passage reports IC50 results from ChEMBL document CHEMBL3886852, “Triazolo compounds as PDE10 inhibitors” (2016).

In this assay the target is cAMP and cAMP-inhibited cGMP 3',5'-cyclic phosphodiesterase 10A (Homo sapiens, UniProt Q9Y233). Put plainly: Scintillation Proximity Assay: The human PDE10A full length assay was performed in 96-well micro titer plates. The reaction mixture of 50 μl contained 20 mM HEPES pH=7.5/10 mM MgCl2/0.05 mg/ml BSA (Sigma cat. # A-7906), 50 nM cGMP (Sigma, cat. # G6129) and 50 nM [3H]-cGMP (GE Healthcare, cat. # TRK392 S.A. 13.2 Ci/mmol), 3.75 ng/well PDE10A enzyme (Enzo Life Science, Lausen, Switzerland cat # SE-534) with or without a specific test compound. A range of concentrations of the potential inhibitor was used to generate data for calculating the concentration of inhibitor resulting in 50% of the effect (e.g. IC50, the concentration of the competitor inhibiting PDE10A activity by 50%). Non-specific activity was tested without the enzyme. The reaction was initiated by the addition of the substrate solution (cGMP and [3H]-cGMP) and allowed to progress for 20 minutes at room temperature. The reaction was terminated by adding 25 μl of YSi-SPA scintillation beads (GE Healthcare, cat. # RPNQ0150) in 18 mM zinc sulphate solution (stop reagent). After 1 h under shaking, the plate was centrifuged one minute at 170 g to allow beads to settle. Afterwards, radioactive counts were measured on a Perkin Elmer Top-Count Scintillation plate reader.
Chain of cAMP and cAMP-inhibited cGMP 3',5'-cyclic phosphodiesterase 10A (Q9Y233 whole entry): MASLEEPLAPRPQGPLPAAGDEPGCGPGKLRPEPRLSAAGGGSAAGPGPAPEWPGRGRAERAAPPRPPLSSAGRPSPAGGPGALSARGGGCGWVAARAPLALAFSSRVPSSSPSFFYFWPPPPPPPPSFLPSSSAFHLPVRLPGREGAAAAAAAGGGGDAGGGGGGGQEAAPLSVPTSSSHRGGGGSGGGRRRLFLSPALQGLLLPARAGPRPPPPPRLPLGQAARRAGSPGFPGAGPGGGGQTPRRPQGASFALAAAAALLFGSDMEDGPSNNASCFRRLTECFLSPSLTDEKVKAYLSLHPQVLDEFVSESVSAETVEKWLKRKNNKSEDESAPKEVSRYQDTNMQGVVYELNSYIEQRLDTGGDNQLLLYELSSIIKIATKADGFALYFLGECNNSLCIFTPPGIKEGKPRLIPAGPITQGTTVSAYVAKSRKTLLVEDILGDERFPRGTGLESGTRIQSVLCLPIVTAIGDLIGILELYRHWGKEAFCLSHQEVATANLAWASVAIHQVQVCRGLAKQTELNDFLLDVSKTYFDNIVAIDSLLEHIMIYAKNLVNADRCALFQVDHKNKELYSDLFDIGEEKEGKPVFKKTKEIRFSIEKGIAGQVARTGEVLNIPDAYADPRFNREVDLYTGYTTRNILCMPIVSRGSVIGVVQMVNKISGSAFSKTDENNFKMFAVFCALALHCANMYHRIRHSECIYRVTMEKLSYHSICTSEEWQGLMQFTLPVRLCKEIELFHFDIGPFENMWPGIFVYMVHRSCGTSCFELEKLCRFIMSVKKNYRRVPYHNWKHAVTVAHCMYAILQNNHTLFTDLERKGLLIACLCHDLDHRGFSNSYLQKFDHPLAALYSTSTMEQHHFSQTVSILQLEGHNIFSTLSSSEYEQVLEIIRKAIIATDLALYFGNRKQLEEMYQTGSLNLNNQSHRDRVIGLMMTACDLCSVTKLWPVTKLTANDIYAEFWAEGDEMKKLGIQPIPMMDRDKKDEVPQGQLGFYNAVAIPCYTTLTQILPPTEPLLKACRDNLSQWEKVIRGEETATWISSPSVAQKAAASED
In general, IC50 refers to the point on the concentration scale where inhibition reaches its midpoint. As for `Cn1nc(N2CCCC2)nc1CCc1nc2c(Br)cc(C(F)(F)F)cn2n1`, the IC50 is 36.5 nM.
In the case of `Cc1ncc(C)n2nc(CCc3nc(N4CCCC4)n(C)n3)nc12` it was 2.68 nM; in that of `Cc1ccn2nc(CCc3nc(N4CCCC4)nn3C)nc2c1C`, 4.49 nM.
As for `Cc1c(C#N)ccc2nc(CCc3nc(N4CCCC4)nn3C)nn12`, the IC50 is 3.47 nM.
For `Cc1ncc(C)n2nc(CCc3nc(N(C)C)nn3C)nc12`, the IC50 is 334 nM.
